Test results published in patent US20230121313A1 (priority 2019, published 2023).

Experiments:
[1] = system: subjects with MDD at imminent risk for suicide; details: 84 mg
From the text: Among 68 randomized subjects, 66 were included in the safety analysis set (defined as receiving at least one dose of study medication in the double-blind phase). […] All safety subjects (N=66) were included in the intent-to-treat (ITT) analysis set (defined as receiving at least one dose of study medication during the double-blind phase and having both the baseline and the Day 1, 4-hour postdose evaluation for the MADRS total score). Forty-nine subjects were included in the safety (FU) analysis set (defined as all subjects who have at least 1 visit during the follow up phase).

[2] = system: subjects with MDD at imminent risk for suicide; details: human, in vivo, other: intranasal, 84 mg
Experimental: Transient blood pressure increases peaked for the esketamine group at approximately 40 minutes post dose with the maximum mean increases (across all dosing days) in systolic BP being 8.7 in the placebo group and 16.7 in the esketamine 84 mg group. The maximum mean increases (across all dosing days) in diastolic BP were 7.6 in the placebo group and 11.9 in the esketamine 84 mg group. […] See, FIGS. 46 and 47.

subjects with TRD = details: human, in vivo, other: intranasal
Experimental: Transient blood pressure increases peaked for the esketamine group at approximately 40 minutes post dose and returned closer to predose levels by 1.5 hours post dose.

[3] = Pharmacokinetics of esketamine nasal spray, data assembled from 14 Phase 1 studies (Example 10); details: human, plasma, inhaled or intranasal
Experimental: The data herein was assembled from 14 Phase 1 studies; each Phase 1 study was performed similarly to the study outlined in Example 9 in which the PK of esketamine was assessed.

[4] = human, in vivo, other: intranasal

CN[C@]1(c2ccccc2Cl)CCCCC1=O [esketamine, (S)-2-(2-chlorophenyl)-2-(methylamino)cyclohexanone]
AE Contusion, subjects (%) ([1]; follow up phase, N = 27): (3.7%)
AE Depression, subjects (%) ([1]; follow up phase, N = 27): (3.7%)
AE Diarrhea, subjects (%) ([1]; follow up phase, N = 27): (3.7%)
AE Dizziness, subjects (%) ([1]; follow up phase, N = 27): (3.7%)
AE Dry mouth, subjects (%) ([1]; follow up phase, N = 27): (7.4%)
AE Dysgeusia, subjects (%) ([1]; follow up phase, N = 27): (3.7%)
AE Ear infection, subjects (%) ([1]; follow up phase, N = 27): (3.7%)
AE Epistaxis, subjects (%) ([1]; follow up phase, N = 27): (3.7%)
AE Flank pain, subjects (%) ([1]; follow up phase, N = 27): (3.7%)
AE Gastrointestinal disorders, subjects (%) ([1]; follow up phase, N = 27): (22.2%)
AE Headache, subjects (%) ([1]; follow up phase, N = 27): (7.4%)
AE Infections and infestations, subjects (%) ([1]; follow up phase, N = 27): (11.1%)
AE Injury, poisoning and procedural complications, subjects (%) ([1]; follow up phase, N = 27): (7.4%)
AE Insomnia, subjects (%) ([1]; follow up phase, N = 27): (11.1%)
AE Intentional self-injury, subjects (%) ([1]; follow up phase, N = 27): (3.7%)
AE Loss of consciousness, subjects (%) ([1]; follow up phase, N = 27): (3.7%)
AE Migraine, subjects (%) ([1]; follow up phase, N = 27): (3.7%)
AE Musculoskeletal and connective tissue disorders, subjects (%) ([1]; follow up phase, N = 27): (7.4%)
AE Musculoskeletal chest pain, subjects (%) ([1]; follow up phase, N = 27): (3.7%)
AE Musculoskeletal pain, subjects (%) ([1]; follow up phase, N = 27): (3.7%)
AE Nasal congestion, subjects (%) ([1]; follow up phase, N = 27): (3.7%)
AE Nasopharyngitis, subjects (%) ([1]; follow up phase, N = 27): (3.7%)
AE Neck pain, subjects (%) ([1]; follow up phase, N = 27): (3.7%)
AE Nervous system disorders, subjects (%) ([1]; follow up phase, N = 27): (22.2%)
AE Night sweats, subjects (%) ([1]; follow up phase, N = 27): (3.7%)
AE Pelvic pain, subjects (%) ([1]; follow up phase, N = 27): (3.7%)
AE Pharyngitis, subjects (%) ([1]; follow up phase, N = 27): (7.4%)
AE Psychiatric disorders, subjects (%) ([1]; follow up phase, N = 27): (18.5%)
AE Reproductive system and breast disorders, subjects (%) ([1]; follow up phase, N = 27): (3.7%)
AE Respiratory, thoracic and mediastinal disorders, subjects (%) ([1]; follow up phase, N = 27): (7.4%)
AE Restlessness, subjects (%) ([1]; follow up phase, N = 27): (3.7%)
AE Road traffic accident, subjects (%) ([1]; follow up phase, N = 27): (3.7%)
AE Sedation, subjects (%) ([1]; follow up phase, N = 27): (3.7%)
AE Skin and subcutaneous tissue disorders, subjects (%) ([1]; follow up phase, N = 27): (3.7%)
AE Suicidal ideation, subjects (%) ([1]; follow up phase, N = 27): (3.7%)
AE Tremor, subjects (%) ([1]; follow up phase, N = 27): (7.4%)
AE Upper respiratory tract infection, subjects (%) ([1]; follow up phase, N = 27): (3.7%)
AE Vomiting, subjects (%) ([1]; follow up phase, N = 27): (3.7%)
AE Vulvovaginal mycotic infection, subjects (%) ([1]; follow up phase, N = 27): (3.7%)
Serious AE: Psychiatric disorders, subjects (%) ([1]; follow up phase, N = 27): 3.7%
Serious AE: Suicidal ideation, subjects (%) ([1]; follow up phase, N = 27): 3.7%
Total no. subjects with a serious adverse event (%) ([1]; follow up phase, N = 27): 3.7%
Total no. subjects with adverse events (%) ([1]; follow up phase, N = 27): (48.1%)
Subjects who discontinued from the double-blind phase due to adverse events [1, 4]: 5 subjects
Subjects with at least one TEAE [1, 4]: 94.3%
Subjects with at least one adverse event [1, 4]: 48.1%
TEAE dissociation, % of subjects [1, 4]: 31.4%
TEAE dizziness, % of subjects [1, 4]: 34.3%
TEAE dysgeusia, % of subjects [1, 4]: 31.4%
TEAE headache, % of subjects [1, 4]: 31.4%
TEAE nausea, % of subjects [1, 4]: 37.1%
TEAE vomiting, % of subjects [1, 4]: 20.0%
Subjects with a serious adverse event ([1]; human, in vivo, other: intranasal, 56 day): 1
Blood pressure returning to normal range by (post dose) [2]: ≤ 2 h
Maximum mean increase in diastolic BP (across all dosing days) ([2]; 40 minutes): 11.9
Maximum mean increase in systolic BP (across all dosing days) ([2]; 40 minutes): 16.7
Blood pressure returned closer to predose levels by (post dose) (subjects with TRD): ≤ 1.5 h
Transient blood pressure increases: time of peak post dose (subjects with TRD): approximately 40 minutes
AUC(0-t) ([3]; 28 mg): 128 to 183 ng·h/mL
Cmax ([3]; 28 mg): 49.7 to 70.5 ng/mL
half-life ([3]; 28 mg, Terminal t1/2, young adult subjects, single dose nasal spray 28 mg, range across studies): 435 to 990 min
Tmax ([3]; 28 mg, Tmax, young adult subjects, single dose nasal spray 28 mg, range of median values): 19.8 to 40.2 min
Tmax ([3]; 28 mg, tmax typically observed after the first nasal spray, 28 mg): 20 to 40 min
AUC(0-t) ([3]; 56 mg): 216 to 317 ng·h/mL
Cmax ([3]; 56 mg): 71.8 to 117 ng/mL
half-life ([3]; 56 mg, Terminal t1/2, young adult subjects, single dose nasal spray 56 mg, range across studies): 408 to 590 min
Tmax ([3]; 56 mg, Tmax, young adult subjects, single dose nasal spray 56 mg, range of median values): 30 to 46.2 min
Tmax ([3]; 56 mg, tmax typically observed after the first nasal spray, 56 mg): 30 to 45 min
AUC(0-t) ([3]; 84 mg): 310 to 489 ng·h/mL
Cmax ([3]; 84 mg): 95 to 164 ng/mL
half-life ([3]; 84 mg, Terminal t1/2, young adult subjects, single dose nasal spray 84 mg, range across studies): 396 to 720 min
Tmax ([3]; 84 mg, Tmax, young adult subjects, single dose nasal spray 84 mg, range of median values): 31.8 to 49.8 min
Tmax ([3]; 84 mg, tmax typically observed after the first nasal spray, 84 mg): 30 to 50 min
half-life ([3]; Mean terminal t1/2, range, nasal administration): 420 to 720 min
half-life ([3]; Median terminal t1/2, nasal administration): 642 min
